Source: US20040192686A1, “Benzoazine mono-N-oxides and benzoazine 1,4 dioxides and compositions therefrom for the therapeutic use in cancer treatments” (Auckland Uniservices Limited, priority 2003, published 2004)
pIC50: −log10 of the molar value. Converted amounts (≈) assume the structure as drawn.

Legend:
[1] = Approximate solubility limit in Alpha MEM culture medium containing 5% fetal calf serum; assay type: physicochemical; conditions: dilution from DMSO stock solutions; for solubility: plasma or biological fluid, kinetic from dmso stock
HT29 cells [2] = test: TPZ potentiation test: IC50 of TPZ with and without potentiator, anoxic HT29 cells; assay type: cell-based, human; conditions: 4 hr anoxic exposure of HT29 cells
[3] = system: HT29 colon carcinoma cells; test: IC50 assay of potentiator alone, HT29 cells, 4 hr anoxic exposure, sulphorhodamine B staining; assay type: cell-based, human; conditions: cell density by sulphorhodamine B five days after washing out
HT29 cells [4] = test: Radiosensitisation of anoxic HT29 cells; assay type: cell-based, human; conditions: 0.6 mM of each agent; anoxic HT29 cells irradiated 5 min after drug addition
Description: Anoxic cell suspensions were irradiated 5 min after addition of pre-equilibrated anoxic drug solutions. Data are shown for duplicate determinations, and are fitted using a linear-quadratic model

[5] = system: HT29 human colon carcinoma cells; test: Cytotoxicity (plating efficiency) in stirred single cell suspensions of HT29 cells, anoxic or aerobic; conditions: TPZ 30 μM; anoxic HT29 cells 5×10^5/ml; drug exposure 1 hr
Source text: Cultures were maintained at <10 ppm O2 under a continuously-flowing stream of 5% CO2 in nitrogen and were sampled at intervals to determine plating efficiency.
Experimental conditions were as for FIG. 2, except that the gas phase was 5% CO2 in air. Values are means and error bars are ranges for duplicate cultures.
Drug exposure time was 1 hr. Error bars represent the range for duplicate determinations.

[6] = conc of potentiator 3 mM (compound 56: approximate, slight precipitation)
[7] = Homo sapiens, HT-29, 4 hr exposure under anoxic conditions

Compound | melting point | other results
[O-][n+]1nc(CCO)nc2ccccc21 [Compound 61, 3-(2-Hydroxyethyl)-1,2,4-benzotriazine 1-oxide] |  | solubility [1]: 3000 µM (≈ 574 µg/mL); TPR (TPZ potentiation ratio) = TPZ IC50 without potentiator/TPZ IC50 with potentiator (HT29 cells [2]; [6]): 1.2; pIC50 [3, 7]: < 2.52
COc1nc2ccccc2[n+]([O-])n1 [Compound 71, 3-Methoxy-1,2,4-benzotriazine 1-oxide] |  | solubility [1]: 300 µM (≈ 53.1 µg/mL); TPR (TPZ potentiation ratio) = TPZ IC50 without potentiator/TPZ IC50 with potentiator (HT29 cells [2]; conc of potentiator 0.3 mM): 3.3; pIC50 [3, 7]: < 3.52
N#CCNc1nc2ccccc2[n+]([O-])n1 [Compound 25, 2-[(1-Oxido-1,2,4-benzotriazin-3-yl)amino]acetonitrile] |  | solubility [1]: 300 µM (≈ 60.4 µg/mL); TPR (TPZ potentiation ratio) = TPZ IC50 without potentiator/TPZ IC50 with potentiator (HT29 cells [2]; conc of potentiator 0.2 mM): 1.9; pIC50 [3, 7]: < 3.52
CCc1nc2ccccc2[n+]([O-])n1 [Compound 56, 3-Ethyl-1,2,4-benzotriazine 1-oxide] |  | solubility [1]: 3000 µM (≈ 526 µg/mL); TPR (TPZ potentiation ratio) = TPZ IC50 without potentiator/TPZ IC50 with potentiator (HT29 cells [2]; [6]): 1.3; pIC50 [3, 7]: < 2.52
CN(C)CCNc1nc2ccccc2[n+]([O-])n1 [Compound 37, N^1,N^1-Dimethyl-N^2-(1-oxido-1,2,4-benzotriazin-3-yl)-1,2-ethanediamine] |  | solubility [1]: 1000 µM (≈ 233 µg/mL); TPR (TPZ potentiation ratio) = TPZ IC50 without potentiator/TPZ IC50 with potentiator (HT29 cells [2]; conc of potentiator 1.0 mM): 13.9; pIC50 [3, 7]: < 3.00
CN(C)CCCNc1nc2ccccc2[n+]([O-])n1 [Compound 44, N^1-(1-Oxido-1,2,4-benzotriazin-3-yl)-N^3,N^3-dimethyl-1,3-propan diamin] |  | Solubility limit [1]: 3000 µM (≈ 742 µg/mL); TPR (TPZ potentiation ratio) = TPZ IC50 without potentiator/TPZ IC50 with potentiator (HT29 cells [2]; conc of potentiator 0.3 mM): 1.2; pIC50 ([3]; 4 hr exposure under anoxic conditions): 3.08
COCC(O)Cn1ccnc1[N+](=O)[O-] (centres unmarked) [misonidazole, reference compound] |  | Relative potency for radiosensitization of hypoxic HT29 cells (HT29 cells [4]): misonidazole>metronidazole=SR4317; Relative dose potency for potentiation of the hypoxic cytotoxicity of TPZ [5]: lower dose potency than SR 4317
Cc1ccc2c(c1)nc(Cl)n[n+]2[O-] [Compound 73, 3-Chloro-6-methyl-1,2,4-benzotriazine 1-oxide] | 156 to 158 °C | 
Cc1ccc2c(c1)nc(CCO)n[n+]2[O-] [Compound 81, 2-(6-Methyl-1-oxido-1,2,4-benzotriazin-3-yl)ethanol] | 121 to 123 °C | 
Cc1cccc2nc(NCCN(C)C)n[n+]([O-])c12 [Compound 101, N^1,N^1-Dimethyl-N^2-(8-methyl-1-oxido-1,2,4-benzotriazin-3-yl)-1,2-ethanediamine] | 121 to 123 °C | 
COCCNc1nc2ccccc2[n+]([O-])n1 [Compound 23, N-(2-Methoxyethyl)-1,2,4-benzotriazin-3-amine 1-oxide] | 155 to 156 °C | 
C=CCc1nc2ccccc2[n+]([O-])n1 [Compound 60, 3-Allyl-1,2,4-benzotriazine 1-oxide] | 57 to 58 °C | 
[N-]=[N+]=NCCCNc1nc2ccccc2[n+]([O-])n1 [Compound 28, N-(3-Azidopropyl)-1,2,4-benzotriazin-3-amine 1-oxide] | 128 to 130 °C | 
Nc1nc2ccc([N+](=O)[O-])cc2[n+]([O-])n1 [Compound 3p, 7-Nitro-1,2,4-benzotriazin-3-amine 1-oxide] | 269 to 272 °C | 
[N-]=[N+]=NCCOCCNc1nc2ccccc2[n+]([O-])n1 [Compound 34, 3-{[2-(2-Azidoethoxy)ethyl]amino}-1,2,4-benzotriazine 1-oxide] | 102 to 104 °C | 
C=Cc1nc2ccccc2[n+]([O-])n1 [Compound 59, 3-Vinyl-1,2,4-benzotriazine 1-oxide] | 85 to 86 °C | 
[O-][n+]1nc(CCCO)nc2ccccc21 [Compound 66, 3-(3-Hydroxypropyl)-1,2,4-benzotriazine 1-oxid] | 99 to 100 °C | 
C=CCc1nc2cc(C)ccc2[n+]([O-])n1 [Compound 80, 3-Allyl-6-methyl-1,2,4-benzotriazine 1-oxide] | 65 to 67 °C | 
Nc1nc2cc(F)ccc2[n+]([O-])n1 [Compound 3t, 6-Fluoro-1,2,4-benzotriazin-3-amine 1-oxide] | 276 to 280 °C | 
Cc1ccc2c(c1)nc(NCCCN1CCOCC1)n[n+]2[O-] [Compound 139, 6-Methyl-N-[3-(4-morpholinyl)propyl]-1,2,4-benzotriazin-3-amine 1-Oxide] | 131 to 132 °C | 
Cc1ccc2nc(N)n[n+]([O-])c2c1 [Compound 3j, 7-Methyl-1,2,4-benzotriazin-3-amine 1-oxide] | 270 °C (dec.) | 
[O-][n+]1nc(NCCOCCO)nc2ccccc21 [Compound 33, 3-{[2-(2-Hydroxyethoxy)ethyl]amino}-1,2,4-benzotriazine 1-oxide] | 131 to 131.5 °C | 

Compound | melting point | other results
N#CCCCNc1nc2ccccc2[n+]([O-])n1 [Compound 27, 4-[(1-Oxido-1,2,4-benzotriazin-3-yl)amino]butanenitrile] | 184 to 187 °C | 
COc1cc2nc(N)n[n+]([O-])c2cc1C [Compound 112, 6-Methoxy-7-methyl-1,2,4-benzotriazin-3-amine 1-oxide] | 289 to 292 °C | 
CCc1nc2ccc(OCCOC)cc2[n+]([O-])n1 [Compound 97, 3-Ethyl-7-(2-methoxyethoxy)-1,2,4-benzotriazine 1-oxid] | 95 to 97 °C | 
Cc1cccc2c1nc(N)n[n+]2[O-] [Compound 3z, 5-Methyl-1,2,4-benzotriazin-3-amine 1-oxide] | 253 to 255 °C | 
Nc1nc2ccccc2n[n+]1[O-] [Compound 126, 1,2,4-Benzotriazin-3-amine 2-oxide] | 175 to 180 °C | 
COc1ccc2c(c1)nc(Cl)n[n+]2[O-] [Compound 83, 3-Chloro-6-methoxy-1,2,4-benzotriazine 1-oxide] | 196 to 199 °C | 
COCCc1nc2ccccc2[n+]([O-])n1 [Compound 63, 3-(2-Methoxyethyl)-1,2,4-benzotriazine 1-oxide] | 56 to 58 °C | 
Nc1nc2cc(-c3ccccc3)ccc2[n+]([O-])n1 [Compound 3s, 6-Phenyl-1,2,4-benzotriazin-3-amine 1-oxide] | 256 to 258 °C | 
Nc1nc2cccc(F)c2[n+]([O-])n1 [Compound 3c, 8-Fluoro-1,2,4-benzotriazin-3-amine 1-oxide] | 270 to 278 °C (dec.) | 
Cc1cc(C)c2c(c1)nc(NCCN(C)C)n[n+]2[O-] [Compound 109, N^1-(6,8-Dimethyl-1-oxido-1,2,4-benzotriazin-3-yl)-N^2,N^2-dimethyl-1,2-ethanediamine] | 176 to 179 °C | 
CCN(CC)CCNc1nc2cc(C)ccc2[n+]([O-])n1 [Compound 137, N^1,N^1-Diethyl-N^2-(6-methyl-1-oxido-1,2,4-benzotriazin-3-yl)-1,2-ethanediamine] | 78 to 80 °C | 
CC(C)(C)c1ccc2c(c1)nc(NCCN1CCOCC1)n[n+]2[O-] [Compound 157, 6-tert-Butyl-N-[2-(4-morpholinyl)ethyl]-1,2,4-benzotriazin-3-amine 1-Oxide] | 132 to 134 °C | 
COCCc1cccc(Nc2nc3ccccc3[n+]([O-])n2)c1 [Compound 49, N-[3-(2-Methoxyethyl)phenyl]-1,2,4-benzotriazin-3-amine 1-oxide] | 122 to 124 °C | 
COCCNC(=O)Cc1ccc(Nc2nc3ccccc3[n+]([O-])n2)cc1 [Compound 53, 2-{4-[(1-Oxido-1,2,4-benzotriazin-3-yl)amino]phenyl}-N-(2-methoxyethyl)acetamide] | 216 to 218 °C | 
Cl.[O-][n+]1nc(CCCN2CCCCC2)nc2ccccc21 | 151 to 153 °C | 
Cc1ccc2c(c1)nc(NCCO)n[n+]2[O-] [Compound 74, 2-[(6-Methyl-1-oxido-1,2,4-benzotriazin-3-yl)amino]ethanol] | 198 to 202 °C | 
COc1ccc2nc(NCCN3CCOCC3)n[n+]([O-])c2c1 [Compound 94, 7-Methoxy-N-[2-(4-morpholinyl)ethyl]-1,2,4-benzotriazin-3-amine 1-oxide] | 208 to 212 °C | 
[O-][n+]1nc(Cl)nc2cc(C(F)(F)F)ccc21 [Compound 142, 3-Chloro-6-trifluoromethyl-1,2,4-benzotriazine 1-Oxide] | 118 to 120 °C | 
CCN(CC)CCNc1nc2cccc(C)c2[n+]([O-])n1 [Compound 162, N^1,N^1-Diethyl-N^2-(8-methyl-1-oxido-1,2,4-benzotriazin-3-yl)-1,2-ethanediamine] | 89 to 91 °C | 
CC(C)(C)ONC(=O)CCOCCNc1nc2ccccc2[n+]([O-])n1 [Compound 35, 3-{[2-(2-tert-Butyloxycarbamoylethoxy)ethyl]amino}-1,2,4-benzotriazine 1-oxide] | 134 to 137 °C | 
Cc1ccc2c(c1)nc(NCCN(C)C)n[n+]2[O-] [Compound 76, N^1,N^1-Dimethyl-N^2-(6-methyl-1-oxido-1,2,4-benzotriazin-3-yl)-1,2-ethanediamine] | 143 to 145 °C | 
CNCCNc1nc2ccccc2[n+]([O-])n1 [Compound 130, N^1-Methyl-#f-(1-oxido-1,2,4-benzotriazin-3-yl)-1,2-ethanediamine] |  | solubility [1]: 3000 µM (≈ 658 µg/mL); TPR (TPZ potentiation ratio) = TPZ IC50 without potentiator/TPZ IC50 with potentiator (HT29 cells [2]; conc of potentiator 1.0 mM): 6.1; pIC50 [3, 7]: 2.64
